The record followed here is patent US20090291857A1, “METHODS TO IDENTIFY INHIBITORS OF THE UNFOLDED PROTEIN RESPONSE” (THE BOARD OF TRUSTEES OF THE LELAND STANFORD JUNIOR …, priority 2006, published 2009).

This test has as its system XBP-1s (5X-UPRE). The test can be described thus: 5X-UPRE luciferase reporter assay. The class given is cell-based, human. As to the method: HT1080 cells stably expressing the XBP-luciferase construct were grown in 60 mm dishes to 60-70% confluency. Following hypoxia treatment, cells were washed twice with PBS, lysed in 400 μl 1× reporter lysis buffer (RLB) (Promega, Madison Wis.) for 30 min at 24° C. Lysates (100 μl) were mixed with an equal volume of luciferase substrate (Promega), and assayed using a luminometer. For 5×-UPRE-luciferase reporter assays, cells were co-transfected with the appropriate reporter plasmid and a control plasmid (pSV40-beta-gal) using Lipofectamine 2000 (Invitrogen, San Diego, Calif.). Twenty-four hours after transfection, fresh media was added, and cells were treated with Tm or shifted to hypoxia. After treatment, cells were lysed in 1× RLB and analyzed for luciferase activity as described above. Beta-galactosidase activity was determined using the beta-galactosidase enzyme assay system (Promega).
A. XBP-luciferase reporter construct. […] After 24 hours, luciferase activity was analyzed in an automated plate reader. For each cell line, values are expressed as the percent inhibition of the median for Tm/Tg-treated wells, corrected for background. […] Values are expressed as the fold increases over uninduced levels. […] Cells were harvested, lysed, and analyzed by immunoblotting with antisera specific for HIF-1α (top), XBP-1s (middle) or actin (bottom). […]

Take `Cc1csc(NC(=O)CSc2nc3c(c(C(F)(F)F)c2C#N)CCC3)n1` [Compound 9389]: the “diminution of 5X-UPRE luciferase response under hypoxia” value (48 hours of hypoxia, vehicle 170-fold) is “more than 90%”. Further, the “5X-UPRE luciferase induction over untreated cells” value (Tm plus irestatin, Tm alone ~12-fold) is given as less than 4 fold.
